{
  "source": "patent US20110020239A1",
  "about": "“METHODS FOR IN VIVO IMAGING OF CELLS” (The Johns Hopkins University, priority 2007, published 2011)",
  "key": {"[1]": {"assay": "19F NMR of PFCs (aqueous solubility)", "assay_type": "physicochemical", "details": "19F NMR experiments", "excerpt": "In the ^19F NMR spectrum of PFOB, eight resonance peaks are observable, one for each carbon position."}, "human islets [2]": {"tested_on": "human islets", "assay": "Microfluorometric viability assay (Newport Green / propidium iodide) of labeled islets", "assay_type": "cell-based", "description": "Fresh human cadaveric islets were provided by the Joslin Diabetes Research Center (Boston, Mass.) under an approved protocol of the National Islet Cell Resource Program. Islets were cultured in RPMI 1640 medium (Gibco), supplemented with 10% fetal calf serum and 1% penicillin/streptomycin/L-glutamine (all reagents from Sigma Co) in a humidified CO2 incubator at 37° C. and a 5% CO2 atmosphere. Islets were cultured in tissue culture plates and culture media was replaced every 3 days. For all Feridex labeled islets, islets were initially labeled with procedure described below and then were cultured in contrast free medium. In the case of PFC labeled islets, the respective PFC was supplemented to each change of culture medium throughout the entire culture period.\nViability of labeled human islets was determined using a microfluorometric assay. Cells were incubated for 30 minutes with […] Newport Green (NG, Sigma, St. Louis, Mo.), which stains viable cell cytoplasm green. Following NG staining, islets were incubated for 10 minutes with 5 mM propidium iodide (PI, Sigma, St. Louis, Mo.), which emits red fluorescence when bound to nucleic acids. NG was excited by using a 500 nm laser line and emitted fluorescence was detected using a 535 nm long-pass filter. PI was excited by using a 514 nm laser line and emitted fluorescence was detected using a 550 nm long-pass filter. NG stained cells (green) were counted as viable, while PI stained cells (red) were counted as dead. In cases of dual staining, the cells were considered dead."}, "human islets [3]": {"tested_on": "human islets", "assay": "Insulin secretion assay (static incubation, C-peptide ELISA)", "assay_type": "cell-based", "set-up": "glucose responsiveness stimulation index: dose or concentration left out as unconfirmed", "details": "for difference in glucose responsiveness stimulation index between PFOB and PFPE: PFOB vs PFPE, p>0.05; for glucose responsiveness stimulation index: increase of insulin secretion", "description": "A static incubation assay was used to assess the insulin secretion response of labeled human islets. One hundred islets were placed in a culture insert (membrane pore diameter 12 μm; Millicell PCF) in six-well plates. The insulin secretion was measured after 1.5 hrs in a solution of a specific glucose level. […] Aliquots of the medium were stored at −80° C. The C-peptide content of the samples was determined with an enzyme-linked, immunosorbent assay (ultrasensitive human c-peptide ELISA, Alpco Diagnostics); results (in ng/ml) were expressed as the means of three independent experiments. The C-peptide secretion was also assessed at 7 days and at 14 days following islet encapsulation, using 8 mM glucose and 90 min incubation."}, "dendritic cells": {"tested_on": "dendritic cells", "details": "Ahrens, Flores et al. 2005; cited from earlier work"}},
  "data": [
    {"smiles": "FC(F)(F)C(F)(F)C(F)(F)C(F)(F)C(F)(F)C(F)(F)C(F)(F)C(F)(F)Br", "note": "[PFOB, perfluorooctylbromide]", "values": [
      {"measurement": "aqueous solubility", "setting": "[1]", "value": "below the limit of detection"},
      {"measurement": "islet viability compared to both Feridex labeled and unlabeled islets", "setting": "human islets [2]", "value": "significant increase in viability"},
      {"measurement": "percentage survival of labeled islets compared to unlabeled control islets", "setting": "human islets [2]; all days / all time points (days 1, 7, 14)", "value": "statistically significant increase"},
      {"measurement": "difference in glucose responsiveness stimulation index between PFOB and PFPE", "setting": "human islets [3]", "value": "no significant statistical difference"},
      {"measurement": "glucose responsiveness stimulation index", "setting": "human islets [3]", "value": 2.19},
      {"measurement": "glucose responsiveness of labeled vs unlabeled islets", "setting": "human islets [3]; insulin secretion assays", "value": "no significant difference"}
    ]},
    {"smiles": "FC1(F)OC(F)(F)C(F)(F)OC(F)(F)C(F)(F)OC(F)(F)C(F)(F)OC(F)(F)C(F)(F)OC1(F)F", "note": "[PFPE, perfluoro-15-crown-5 ether]", "values": [
      {"measurement": "percentage survival of labeled islets compared to unlabeled control islets", "setting": "human islets [2]; days 7 and 14, p<0.05", "value": "significant statistical differences"},
      {"measurement": "difference in glucose responsiveness stimulation index between PFOB and PFPE", "setting": "human islets [3]", "value": "no significant statistical difference"},
      {"measurement": "glucose responsiveness stimulation index", "setting": "human islets [3]", "value": 2.07},
      {"measurement": "effect on dendritic cell proliferation, function, or maturation", "setting": "dendritic cells", "value": "no effect"}
    ]}
  ]
}
